The text below walks through data of paper PMC10926604, “Discovery of a novel small molecule as CD47/SIRPα and PD-1/PD-L1 dual inhibitor for cancer immunotherapy” (Cell Communication and Signaling : CCS, 2024).

Data set [1] relates to MC38 tumor-bearing mice. In words: MC38 tumor model. It is filed as in vivo, mouse. To be noted: 2 or 6 mg/kg i.p. daily for 14 days. The protocol:
The animal studies were conducted in accordance with the guidelines and approved by the Ethics Committee of Zhengzhou University (ZZUIRB 2021–36). Six weeks old female mice were purchased from the Vital River Laboratory (Beijing, China). Mouse MC38 colorectal cancer cells (1 × 10^6) were harvested and subcutaneously (s.c.) injected into the right abdomen of the mice. When the tumor size reached 40 ~ 80 mm^3, the mice were randomly assigned into three groups (n = 5 per group) to receive intraperitoneal injections daily of SMC18 (2 mg/kg), SMC18 (6 mg/kg) or normal saline for 14 days. At day 23, mice were euthanized for ex vivo analysis.

A short description of data set [2]: Mouse blood indicators and H&E staining of major organs. It is filed as in vivo. To be noted: for ALT: NS 45.13 ± 1.55; for AST: NS 187.4 ± 25.5. Here is the method: Peripheral blood samples were collected from mice that received intravenous injections of SMC18 (2 or 6 mg/kg) for 2 weeks. The samples were analyzed for whole blood hematological test to detect the indicators of anemia and liver injury. For H&E staining analysis, tumors and the major organs (heart, liver, spleen, lung and kidney) were harvested from tumor-bearing mice. The tissues were then fixed with 4.0% paraformaldehyde for paraffin embedding and processed by H&E staining for histological evaluation. Immunostaining of tumor tissue sections was conducted utilizing anti-mouse CD8α andtibody (53–6.7, eBioscience).

The target of data set [3] is T1, murine PD-1/PD-L1 (Mus musculus, UniProt Q9EP73).
T1 construct: purchased Sino Biological 50,010-M02H; host or cells: CHO-K1-mPD-1 cells carry the partner (lentiviral transfection)
T1 sequence (Q9EP73 19-238 limits assumed): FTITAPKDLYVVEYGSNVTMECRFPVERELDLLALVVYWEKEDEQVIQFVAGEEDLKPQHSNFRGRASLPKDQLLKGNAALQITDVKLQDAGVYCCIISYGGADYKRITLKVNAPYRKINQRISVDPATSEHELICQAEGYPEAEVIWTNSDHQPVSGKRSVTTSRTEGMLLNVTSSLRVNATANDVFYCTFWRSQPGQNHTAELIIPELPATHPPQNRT
The experiment in a line: Cell-based blocking assay, murine PD-1/PD-L1. To be noted: CHO-K1-mPD-1 cells, PD-L1-Fc, flow cytometry; read-out: IC50 for blocking murine PD-1/PD-L1 interaction. Here is the method:
(§1) The CHO-K1 cell line with stable expression of CD47 and PD-1 was constructed previously by our group. SMC18 was serially diluted using PBS 7.2 (containing 1% DMSO) and incubated with 100 ng of SIRPα-Fc protein (human: SIA-H5251, mouse: SIA-M5258, ACRO Biosystems) and 50 ng of PD-L1-Fc protein (human: 10,084-H02H, mouse: 50,010-M02H, Sino Biological) on ice for 30 min. The mixture was then added to the corresponding CHO-K1-CD47 or CHO-K1-PD-1 cells and further incubated on ice for 30 min. Afterward, PE-conjugated anti-human IgG (Fc) antibody (A18272, eBioscience) was added. The mean fluorescence intensity (MFI) of the cells was detected using flow cytometry (BD FACSCalibur) and the blocking efficiency was calculated.
For orientation: In flow cytometry, cells or beads pass a laser one at a time.

Data set [4] has as its system B16-OVA cells. In words: MTT assay, B16-OVA cells. It is filed as cell-based, mouse. To be noted: 100 µM; 24 h, 48 h, 72 h. The protocol: MC38 and B16-OVA cells were seeded into 96-well plates at a density of 3,000 cells per well, respectively and allowed to adhere overnight. SMC18 was added to the cells and incubated for 24 h, 48 h and 72 h, respectively. Cell viability was measured by adding MTT (3-(4, 5-dimethyl-2-thiazolyl)-2,5-diphenyl-2-H-tetrazolium bromide, 298–93-1, Sigma) solution and incubating for 4 h. The cells were then lysed by shaking with DMSO. The absorbance values at 490 nm were measured using a multi-mode microplate reader (Molecular Devices, SpectraMax iD5).
Fig S3. The Effect of SMC18 on Tumor Cell Proliferation in vitro. MC38 cells (3000 cells/well) and B16-OVA cells (3000 cells/well) were seeded in flat-bottomed 96-well plates and allowed to adhere overnight. Subsequently, the cells were starved for 8 hours in serum-free medium. SMC18 was diluted in complete culture medium and added to the wells, following which the cells were incubated for 24 h, 48 h, and 72 h. After the designated incubation periods, 20 μL of MTT solution was added to each well. Four hours later, the supernatant was aspirated, and 150 μL of DMSO was added to each well to dissolve the MTT formazan product. The plates were then shaken for 10 minutes, and absorbance was measured at 490 nm using a microplate reader.
A general note: Tetrazolium assays rely on reduction of a dye to a coloured formazan, in cell work by metabolically active cells.

In data set [5] the target is T2, human CD47/SIRPα (Homo sapiens, UniProt P78324).
T2 construct: purchased ACRO Biosystems SIA-H5251; host or cells: CHO-K1-hCD47 cells carry the partner (lentiviral transfection)
T2 sequence (P78324 31-370 limits assumed): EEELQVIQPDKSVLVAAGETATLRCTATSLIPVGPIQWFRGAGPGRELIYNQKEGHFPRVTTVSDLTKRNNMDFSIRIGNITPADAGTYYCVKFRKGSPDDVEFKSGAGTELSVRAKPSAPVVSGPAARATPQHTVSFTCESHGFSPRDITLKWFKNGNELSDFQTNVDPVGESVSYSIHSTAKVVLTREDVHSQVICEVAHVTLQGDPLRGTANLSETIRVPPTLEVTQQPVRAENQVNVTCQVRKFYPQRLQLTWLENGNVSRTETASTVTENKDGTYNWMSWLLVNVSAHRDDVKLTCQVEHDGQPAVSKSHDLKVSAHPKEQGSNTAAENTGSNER
The experiment in a line: Cell-based blocking assay, human CD47/SIRPα. To be noted: CHO-K1-hCD47 cells, SIRPα-Fc, flow cytometry; read-out: IC50 for blocking human CD47/SIRPα interaction. The protocol: as §1

Data set [6] concerns MC38 tumor-bearing mice. The experiment in a line: Ex vivo flow cytometry of immune cells from MC38 tumor-bearing mice. It is filed as in vivo, mouse. To be noted: SMC18 treatment vs NS. The protocol:
At the end of treatment, the tumor-bearing mice were euthanized, and the tumor tissues were removed, minced and enzymatically digested with DNAase I (DN25, Sigma) and collagenase IV (17,104–019, Invitrogen) at 37 °C for 40 min. The digested tumor suspensions were filtered by nylon filter. Immune cell infiltration in the tumor tissue was analyzed by flow cytometry. For the detection of CD8^+ T cells at the tumor site, single-cell suspensions were stained with anti-mouse CD45-FITC (30-F11, eBioscience), anti-mouse CD3-PerCP-eFluor710 (17A2, eBioscience), anti-mouse CD8α-PE (53–6.7, eBioscience) or isotype control. To detect macrophage infiltration at tumor sites, single cell suspensions were stained with anti-mouse CD45-FITC (30-F11, eBioscience), anti-mouse CD11b-eFluor450 (M1/70, eBioscience), anti-mouse F4/80-PerCP-Cyanine5.5 (BM8, eBioscience), anti-mouse CD11c-APC (M418, eBioscience), anti-mouse CD206-PE (MR6F3, eBioscience) or isotype control.
To assess cytokine secretion from tumor sites and immune organs, spleens, draining lymph nodes and tumors from mice were dissected and ground into single cell suspensions, followed by filtration and incubation with […] transport inhibitors, PMA (20 ng/mL, 16561–29-8, Sigma) and ionomycin (1 µM, I0634, Sigma) for 4 h in a 37 °C incubator. The single cell suspensions of draining lymph nodes and spleens were stained with anti-mouse CD3-PerCP-eFluor710 (17A2, eBioscience), anti-mouse CD8α-PE (53–6.7, eBioscience), anti-mouse IFN-γ-APC (XMG1.2, eBioscience) or isotype control. Tumor cells were stained with anti-mouse CD45-FITC (30-F11, eBioscience), anti-mouse CD3-PerCP-eFluor710 (17A2, eBioscience), anti-mouse CD8α-PE (53–6.7, eBioscience), anti-mouse IFN-γ-APC (XMG1.2, eBioscience) or isotype control. Finally, the samples were detected by flow cytometry.

As for `Cc1cc(C)cc(NS(=O)(=O)c2ccc3[nH]cc(C(=O)NCCc4ccccc4)c(=O)c3c2)c1` [SMC18], in data set [1], the “body weight of tumor-bearing mice” value is recorded as “without affecting” and the “growth of MC38 tumors” value is on record as “effectively delayed”. In data set [2] (2 mg/kg daily for 14 days), this compound returned an ALT of 56.57 ± 13.3 U/L and an AST of 196.4 ± 20.7 U/L. In data set [2] (6 mg/kg daily for 14 days), this compound had an ALT of 46.83 ± 7.74 U/L and an AST of 191.1 ± 23.3 U/L. Besides, in data set [2] (2 or 6 mg/kg daily for 14 days), the “content of alanine aminotransferase (ALT) vs control group” value is given as “no significant differences”, the “content of aspartate aminotransferase (AST) vs control group” value is recorded as “no significant differences”, the “levels of erythrocytes (RBC count) vs control group” value is given as “No significant differences” and the “levels of hemoglobin vs control group” value is “No significant differences”. Moreover, the “H&E staining of major organs (heart, liver, spleen, lung, kidney)” value in data set [2] (tumor-bearing mice treated with SMC18) is listed as “no significant damage”. Further, in data set [3], the IC50 was 71.3 ± 20 µM. Also, the “toxicity towards B16-OVA cells (MTT)” value in data set [4] was “only mild toxicity”. Further, the IC50 in data set [5] came to 17.8 ± 8.2 µM. In data set [6] (MC38 tumor), the “amount of CD8+ T cell secreting IFN-γ in the tumor tissue” value is reported as “significantly increased” and the “infiltration of CD8+ T cells in the tumor tissue” value was “significantly increased”. In data set [6], the “amount of CD8+ T secreting IFN-γ in the draining lymph nodes” value is listed as “increased”, the “amount of CD8+ T secreting IFN-γ in the spleen” value was “increased” and the “proportion of M1-type macrophages in tumor” value was “increased”.
